{"source": "paper PMC3684770", "about": "(Free Radical Biology & Medicine, 2013)", "key": {"[1]": {"conditions": "cited from earlier work"}, "[2]": {"conditions": "mouse ref 73; cited from earlier work"}, "[3]": {"test_system": "primary fibroblasts from ALS patients", "assay": "Oxidative stress assay in ALS patient and control fibroblasts", "type": "cell-based, human", "conditions": "3.7 or 0.41 µM, 24 h", "method": "Fibroblasts were obtained from human controls (n=3) and ALS patients with I113T SOD1 mutations (n=3) and sporadic ALS patients (n=2). […] The cells were incubated at 37 °C/5% CO2 overnight. The following day the media were removed and the cells were washed with 200 µl 1XP BS. Phenol red-free DMEM/F12 media (Sigma D6434) was added in the presence of 10% serum/2 mM Gln (++), 10% serum/0 mM Gln (+−), or 0% serum/0 mM Gln (−−). Cells were incubated at 37 °C/5% CO2 for 5 h.\nCarboxy-H2DCFDA fluorescence was normalised to live cell number (total EthD1 signal after freeze/thaw – EthD1 signal after assay) to compare between the different cell lines. Data were analysed by one-way ANOVA with Bonferroni post tests using GraphPad Prism\nDMEM/F12 (50 µl) media were added in the presence of 10% serum/0 mM Gln (+−) and the cells were incubated at 37 °C and 5% CO2 for 5 h.\nThe data were tested for normality and analysed by one-way ANOVA using GraphPad Prism."}, "[4]": {"assay": "Pharmacokinetic analysis in C57Bl/6 mice", "type": "in vivo, mouse", "conditions": "1 mg/kg", "method": "Pharmacokinetic studies were performed by Pharmidex (London, UK). […] All concentrations were calculated with reference to the relevant standard curve. An extraction buffer (EB) solution of acetonitrile with 0.1% formic acid (Fisher Scientific, HPLC grade) and 500 ng/ml of propranolol as the internal standard (IS) was used for in all extraction protocols."}}}
{"smiles": "CN1CCc2cccc3c2[C@H]1Cc1ccc(O)c(O)c1-3", "note": "[apomorphine]", "values": [{"measurement": "fraction absorbed following subcutaneous dosing", "setting": "[1]; humans ref 75", "result": 1}, {"measurement": "Tmax following subcutaneous dosing", "setting": "[1]; humans ref 76", "result": "8 to 16", "unit": "min"}, {"measurement": "plasma protein binding fraction (unbound)", "setting": "[2]", "result": 0.222}, {"measurement": "cell number compared to DMSO control", "setting": "[3]", "result": "no effect on cell number"}, {"measurement": "Kp", "setting": "[4]; C57Bl/6, mouse, brain / plasma, intravenous, read-out: brain:plasma (Kp)", "result": 2.1}, {"measurement": "clearance", "setting": "[4]; C57Bl/6, plasma, mouse, iv", "result": 6.54, "unit": "L/h/kg"}]}
